US20250144067A1, “PERSONALIZED STARVATION THERAPY FOR CANCER” (Faeth Therapeutics, Inc., priority 2021, published 2025)
Counter-ions that a name gives are not always drawn.

system: NCI-H292 lung cancer cells; test: FDA drug screening, complete media vs cholesterol-free media without statin (TABLE 1); format: cell-based, human; conditions: NCI-H292 cells, cholesterol-free media without statin

**Q.** How did the Cholesterol-free turn out when `C/C=C/C1=C(C(=O)O)N2C(=O)[C@@H](NC(=O)[C@H](N)c3ccc(O)cc3)[C@H]2SC1.O` [Cefprozil (monohydrate)] was run?
**A.** 1.442

**Q.** How did the Cholesterol-free turn out when `NC(=O)c1cc[n+](CC2=C(C(=O)O)N3C(=O)[C@@H](NC(=O)[C@@H](c4ccccc4)S(=O)(=O)[O-])[C@H]3SC2)cc1` [Cefsulodin (sodium)] was run?
**A.** 1.045

same assay, conditions: NCI-H292 cells, cholesterol-free media without statin, FDA drug library screen

**Q.** `CO[C@@]1(NC(=O)CSCC#N)C(=O)N2C(C(=O)O)=C(CSc3nnnn3C)CS[C@@H]21` [Cefmetazole (sodium)] was tested. Which Cholesterol-free did it give?
**A.** 0.6502

**Q.** Which Cholesterol-free does the source give for `CCN1CCN(C(=O)N[C@@H](C(=O)N[C@@H]2C(=O)N3C(C(=O)O)=C(CSc4nnnn4C)CS[C@H]23)c2ccc(O)cc2)C(=O)C1=O` [Cefoperazone (sodium salt)] here?
**A.** 1.002

**Q.** Which Cholesterol-free does the source give for `CCN1CCN(C(=O)N[C@@H](C(=O)N[C@@H]2C(=O)N3C(C(=O)O)=C(CSc4nnnn4C)CS[C@H]23)c2ccc(O)cc2)C(=O)C1=O` [Cefoperazone] here?
**A.** 0.8233

**Q.** Which Cholesterol-free does the source give for `CO/N=C(\C(=O)N[C@@H]1C(=O)N2C(C(=O)O)=C(Cn3ccc(=N)n3CCO)CS[C@H]12)c1csc(N)n1.O=S(=O)(O)O` [Cefoselis (sulfate)] here?
**A.** 0.955

**Q.** For `COCC1=C(C(=O)OC(C)OC(=O)OC(C)C)N2C(=O)[C@@H](NC(=O)/C(=N\OC)c3csc(N)n3)[C@H]2SC1` (some centres unmarked) [Cefpodoxime Proxetil], which Cholesterol-free is on record?
**A.** 1.085

same assay, conditions: NCI-H292 cells, complete media

**Q.** `C/C=C/C1=C(C(=O)O)N2C(=O)[C@@H](NC(=O)[C@H](N)c3ccc(O)cc3)[C@H]2SC1.O` [Cefprozil (monohydrate)] was tested. Which Complete did it give?
**A.** 1.109

**Q.** For `NC(=O)c1cc[n+](CC2=C(C(=O)O)N3C(=O)[C@@H](NC(=O)[C@@H](c4ccccc4)S(=O)(=O)[O-])[C@H]3SC2)cc1` [Cefsulodin (sodium)], which Complete is on record?
**A.** 0.6569

same assay, conditions: NCI-H292 cells, complete media, FDA drug library screen

**Q.** For `CO[C@@]1(NC(=O)CSCC#N)C(=O)N2C(C(=O)O)=C(CSc3nnnn3C)CS[C@@H]21` [Cefmetazole (sodium)], which Complete is on record?
**A.** 0.9897

**Q.** `CCN1CCN(C(=O)N[C@@H](C(=O)N[C@@H]2C(=O)N3C(C(=O)O)=C(CSc4nnnn4C)CS[C@H]23)c2ccc(O)cc2)C(=O)C1=O` [Cefoperazone] was tested. Which Complete did it give?
**A.** 1.132

**Q.** `CO/N=C(\C(=O)N[C@@H]1C(=O)N2C(C(=O)O)=C(Cn3ccc(=N)n3CCO)CS[C@H]12)c1csc(N)n1.O=S(=O)(O)O` [Cefoselis (sulfate)] was tested. Which Complete did it give?
**A.** 1.116

**Q.** `COCC1=C(C(=O)OC(C)OC(=O)OC(C)C)N2C(=O)[C@@H](NC(=O)/C(=N\OC)c3csc(N)n3)[C@H]2SC1` (some centres unmarked) [Cefpodoxime Proxetil] was tested. Which Complete did it give?
**A.** 1.311

same assay, conditions: complete vs cholesterol-free media; >0 enhanced anti-cancer activity, about 0 neutral, <0 antagonist

**Q.** Which Difference does the source give for `CO[C@@]1(NC(=O)CSCC#N)C(=O)N2C(C(=O)O)=C(CSc3nnnn3C)CS[C@@H]21` [Cefmetazole (sodium)] here?
**A.** 0.34

**Q.** With `CCN1CCN(C(=O)N[C@@H](C(=O)N[C@@H]2C(=O)N3C(C(=O)O)=C(CSc4nnnn4C)CS[C@H]23)c2ccc(O)cc2)C(=O)C1=O` [Cefoperazone (sodium salt)] as the compound, how does the Difference read?
**A.** 0.17

**Q.** `CCN1CCN(C(=O)N[C@@H](C(=O)N[C@@H]2C(=O)N3C(C(=O)O)=C(CSc4nnnn4C)CS[C@H]23)c2ccc(O)cc2)C(=O)C1=O` [Cefoperazone] was tested. Which Difference did it give?
**A.** 0.31

**Q.** `CO/N=C(\C(=O)N[C@@H]1C(=O)N2C(C(=O)O)=C(Cn3ccc(=N)n3CCO)CS[C@H]12)c1csc(N)n1.O=S(=O)(O)O` [Cefoselis (sulfate)] was tested. Which Difference did it give?
**A.** 0.16

**Q.** With `COCC1=C(C(=O)OC(C)OC(=O)OC(C)C)N2C(=O)[C@@H](NC(=O)/C(=N\OC)c3csc(N)n3)[C@H]2SC1` (some centres unmarked) [Cefpodoxime Proxetil] as the compound, how does the Difference read?
**A.** 0.23

same assay, conditions: complete vs cholesterol-free media; greater than 0 enhanced anti-cancer activity, about 0 neutral, below 0 antagonists

**Q.** With `C/C=C/C1=C(C(=O)O)N2C(=O)[C@@H](NC(=O)[C@H](N)c3ccc(O)cc3)[C@H]2SC1.O` [Cefprozil (monohydrate)] as the compound, how does the Difference read?
**A.** −0.33

**Q.** For `NC(=O)c1cc[n+](CC2=C(C(=O)O)N3C(=O)[C@@H](NC(=O)[C@@H](c4ccccc4)S(=O)(=O)[O-])[C@H]3SC2)cc1` [Cefsulodin (sodium)], which Difference is on record?
**A.** −0.39

system: NCI-H292 lung cancer cells; test: FDA drug screening, complete media vs cholesterol-free media with simvastatin (TABLE 2); format: cell-based, human; conditions: NCI-H292 cells, FDA drug library screen, cholesterol-free media with simvastatin 0.04 μM

**Q.** With `CO[C@@]1(NC(=O)CSCC#N)C(=O)N2C(C(=O)O)=C(CSc3nnnn3C)CS[C@@H]21` [Cefmetazole (sodium)] as the compound, how does the “Cholesterol-free media + simvastatin (0.04 μM)” value read?
**A.** 1.32

**Q.** How did the “Cholesterol-free media + simvastatin (0.04 μM)” value turn out when `CCN1CCN(C(=O)N[C@@H](C(=O)N[C@@H]2C(=O)N3C(C(=O)O)=C(CSc4nnnn4C)CS[C@H]23)c2ccc(O)cc2)C(=O)C1=O` [Cefoperazone] was run?
**A.** 1.061

**Q.** With `C/C=C/C1=C(C(=O)O)N2C(=O)[C@@H](NC(=O)[C@H](N)c3ccc(O)cc3)[C@H]2SC1.O` [Cefprozil (monohydrate)] as the compound, how does the “Cholesterol-free media + simvastatin (0.04 μM)” value read?
**A.** 0.9773

**Q.** `NC(=O)c1cc[n+](CC2=C(C(=O)O)N3C(=O)[C@@H](NC(=O)[C@@H](c4ccccc4)S(=O)(=O)[O-])[C@H]3SC2)cc1` [Cefsulodin (sodium)] was tested. Which “Cholesterol-free media + simvastatin (0.04 μM)” value did it give?
**A.** 1.191

same assay, conditions: NCI-H292 cells, FDA drug library screen, complete media

**Q.** Which “Complete Media” value does the source give for `CO[C@@]1(NC(=O)CSCC#N)C(=O)N2C(C(=O)O)=C(CSc3nnnn3C)CS[C@@H]21` [Cefmetazole (sodium)] here?
**A.** 1.164

**Q.** For `CCN1CCN(C(=O)N[C@@H](C(=O)N[C@@H]2C(=O)N3C(C(=O)O)=C(CSc4nnnn4C)CS[C@H]23)c2ccc(O)cc2)C(=O)C1=O` [Cefoperazone], which “Complete Media” value is on record?
**A.** 1.748

**Q.** `C/C=C/C1=C(C(=O)O)N2C(=O)[C@@H](NC(=O)[C@H](N)c3ccc(O)cc3)[C@H]2SC1.O` [Cefprozil (monohydrate)] was tested. Which “Complete Media” value did it give?
**A.** 1.216

**Q.** How did the “Complete Media” value turn out when `NC(=O)c1cc[n+](CC2=C(C(=O)O)N3C(=O)[C@@H](NC(=O)[C@@H](c4ccccc4)S(=O)(=O)[O-])[C@H]3SC2)cc1` [Cefsulodin (sodium)] was run?
**A.** 1.113

same assay, conditions: NCI-H292 cells, cholesterol-free media with simvastatin 0.04 μM; cell growth value in FDA drug screen

**Q.** For `CO/N=C(\C(=O)N[C@@H]1C(=O)N2C(C(=O)O)=C(Cn3ccc(=N)n3CCO)CS[C@H]12)c1csc(N)n1.O=S(=O)(O)O` [Cefoselis (sulfate)], which “Cholesterol-free media + simvastatin (0.04 μM)” value is on record?
**A.** 1.07

**Q.** `COCC1=C(C(=O)OC(C)OC(=O)OC(C)C)N2C(=O)[C@@H](NC(=O)/C(=N\OC)c3csc(N)n3)[C@H]2SC1` (some centres unmarked) [Cefpodoxime Proxetil] was tested. Which “Cholesterol-free media + simvastatin (0.04 μM)” value did it give?
**A.** 1.112

same assay, conditions: NCI-H292 cells, complete media; cell growth value in FDA drug screen

**Q.** `CO/N=C(\C(=O)N[C@@H]1C(=O)N2C(C(=O)O)=C(Cn3ccc(=N)n3CCO)CS[C@H]12)c1csc(N)n1.O=S(=O)(O)O` [Cefoselis (sulfate)] was tested. Which “Complete Media” value did it give?
**A.** 1.107

**Q.** `COCC1=C(C(=O)OC(C)OC(=O)OC(C)C)N2C(=O)[C@@H](NC(=O)/C(=N\OC)c3csc(N)n3)[C@H]2SC1` (some centres unmarked) [Cefpodoxime Proxetil] was tested. Which “Complete Media” value did it give?
**A.** 1.162

same assay, conditions: NCI-H292 cells, drug in cholesterol-free media with simvastatin 0.04 μM

**Q.** How did the “Cholesterol-free media + simvastatin (0.04 μM)” value turn out when `CCN1CCN(C(=O)N[C@@H](C(=O)N[C@@H]2C(=O)N3C(C(=O)O)=C(CSc4nnnn4C)CS[C@H]23)c2ccc(O)cc2)C(=O)C1=O` [Cefoperazone (sodium salt)] was run?
**A.** 1.213

same assay, conditions: NCI-H292 cells, drug in complete media

**Q.** `CCN1CCN(C(=O)N[C@@H](C(=O)N[C@@H]2C(=O)N3C(C(=O)O)=C(CSc4nnnn4C)CS[C@H]23)c2ccc(O)cc2)C(=O)C1=O` [Cefoperazone (sodium salt)] was tested. Which “Complete Media” value did it give?
**A.** 0.9749

same assay, conditions: complete media minus cholesterol-free media + simvastatin; >0 enhanced anti-cancer activity, about 0 neutral, <0 antagonist

**Q.** How did the Difference turn out when `CCN1CCN(C(=O)N[C@@H](C(=O)N[C@@H]2C(=O)N3C(C(=O)O)=C(CSc4nnnn4C)CS[C@H]23)c2ccc(O)cc2)C(=O)C1=O` [Cefoperazone] was run?
**A.** 0.69

**Q.** With `CO/N=C(\C(=O)N[C@@H]1C(=O)N2C(C(=O)O)=C(Cn3ccc(=N)n3CCO)CS[C@H]12)c1csc(N)n1.O=S(=O)(O)O` [Cefoselis (sulfate)] as the compound, how does the Difference read?
**A.** 0.04

**Q.** With `COCC1=C(C(=O)OC(C)OC(=O)OC(C)C)N2C(=O)[C@@H](NC(=O)/C(=N\OC)c3csc(N)n3)[C@H]2SC1` (some centres unmarked) [Cefpodoxime Proxetil] as the compound, how does the Difference read?
**A.** 0.05

**Q.** For `C/C=C/C1=C(C(=O)O)N2C(=O)[C@@H](NC(=O)[C@H](N)c3ccc(O)cc3)[C@H]2SC1.O` [Cefprozil (monohydrate)], which Difference is on record?
**A.** 0.24

same assay, conditions: complete media vs cholesterol-free media + simvastatin (0.04 μM); >0 enhanced anti-cancer activity, about 0 neutral, <0 antagonist

**Q.** How did the Difference turn out when `CO[C@@]1(NC(=O)CSCC#N)C(=O)N2C(C(=O)O)=C(CSc3nnnn3C)CS[C@@H]21` [Cefmetazole (sodium)] was run?
**A.** −0.16

**Q.** With `CCN1CCN(C(=O)N[C@@H](C(=O)N[C@@H]2C(=O)N3C(C(=O)O)=C(CSc4nnnn4C)CS[C@H]23)c2ccc(O)cc2)C(=O)C1=O` [Cefoperazone (sodium salt)] as the compound, how does the Difference read?
**A.** −0.24

**Q.** `NC(=O)c1cc[n+](CC2=C(C(=O)O)N3C(=O)[C@@H](NC(=O)[C@@H](c4ccccc4)S(=O)(=O)[O-])[C@H]3SC2)cc1` [Cefsulodin (sodium)] was tested. Which Difference did it give?
**A.** −0.08
